Source: article PMC10788856, “Mimicking Nonribosomal Peptides from the Marine Actinomycete Streptomyces sp. H-KF8 Leads to Antimicrobial Peptides” (ACS Infectious Diseases, 2023)
Numbered stars: 1 amine (or outer) side, 2 acyl side, 3 side chain; on linkers, the order of the positions; unused ones are H or OH. Bridge positions count the residues as written; N and C are the ends. Square brackets hold non-standard residues; d marks the D form. Peptide text beside a SMILES is read from it. Tyr(3-NO2) = N[C@@H](Cc1ccc(O)c([N+](=O)[O-])c1)C(=O)O; Glutaryl = O=C(CCCC(=O)[*:2])[*:1]; Orn = NCCC[C@H](N)C(=O)O

Legend:
E. coli CCUG31246 [1] = assay: DiSC(3)5 microscopy (membrane potential); type: cell-based; conditions: 0.5 μM DiSC(3)5
From the text: Propidium iodide is a large organic molecule that is not suitable to detect smaller ion-conducting pores or channels induced by antimicrobials. To assess whether the peptides may form smaller membrane pores sufficient for the passage of ions, we tested their effects on the membrane potential using the fluorescence probe DiSC(3)5.[40] This dye accumulates in the cell membrane in a membrane potential-dependent manner and disassociates, when the membrane potential is dissipated. […] This effect can be clearly seen with polymyxin B (Figure 7b).
The membrane potential of E. coli CCUG31246 and E. coli MC4100 carrying pABCON2-fhuA ΔC/Δ4L was measured by DiSC(3)5 microscopy according to ref. ([40]) with minor modifications. Cells were grown in 1:10 BHI containing 50 μg/mL bovine serum albumin to an OD600 of 0.3 prior to antibiotic treatment with the respective peptides for 10 and 60 min. Samples were stained with 0.5 μM DiSC(3)5 for 15 min (added 5 min before adding antibiotics for the 10 min time point and after 45 min of antibiotic treatment for the 60 min time point). Stained samples were spotted on 1.2% agarose, sealed with a gene frame, and imaged immediately. Microscopy was performed as described above, and fluorescence intensity was analyzed with the same parameters used for propidium iodide detection.

E. coli CCUG31246 [2] = assay: Propidium iodide staining (pore formation); type: cell-based
Procedure: Due to the overall similarity of the peptides’ cytological profiles to that of polymyxin B, we further tested their ability to form pores in the cell membrane. To this end, we used the fluorescence probe propidium iodide, which cannot cross intact membranes but can enter cells through pores of sufficient size.[39]
Pore formation was investigated with the fluorescence dye propidium iodide as described previously[56] with minor modifications. E. coli CCUG31246 was grown to an OD600 of 0.3 and subsequently treated with different peptides for 10 and 60 min. Samples were stained with 1 μg/mL propidium iodide for 15 min (added 5 min before adding antibiotics for the 10 min time point and after 45 min of antibiotic treatment for the 60 min time point), spotted on 1.2% agarose films, and sealed with a gene frame. Microscopy was performed as described above. The fluorescence intensity of the different samples was analyzed with MicrobeJ. For detection of bacterial cells from phase contrast images, parameters were set to an area of 1.5-max, length of 1-max, width 0.5–2.5, curvature 0–1.5, and an angularity of 0–0.5. Fluorescence intensity parameters were set to an area of 1.5-max, length of 1-max, and width 0.5–2.5. All other parameters remained at default settings.

[3] = test system: E. coli MC4100 pABCON2-fhuA ΔC/Δ4L; assay: DiSC(3)5 microscopy (membrane potential), outer membrane permeable strain; type: cell-based; conditions: 1× MIC; 10 and 60 min; 0.5 μM DiSC(3)5
From the text: To test this hypothesis, we employed an E. coli strain that overexpresses the outer membrane porin FhuA, making these cells more permeable to most fluorescence dyes including DiSC(3)5.[41]

S. aureus = assay: microbe, parasite or virus in culture; type: cell-based; conditions: 16 h
[4] = test system: Candida albicans (ATCC 64549/CCUG31028); assay: Minimum microbicidal concentration (MMC99) assay; type: cell-based, C. albicans; conditions: BHI diluted 1/100, 37 °C, median, n = 3
Procedure: The microbicidal activity of the synthetic peptides was assessed against S. aureus (ATCC 12600; American Type Culture Collection, Manassas, VA, USA), Escherichia coli (CCUG 31246; Culture Collection, University of Gothenburg, Sweden), and Candida albicans (ATCC 64549/CCUG31028) using an MMC assay, as described previously by […] et al. (specific details in Supporting Information, pages 10, 11).[28] The assay was performed in BHI diluted 1/100 (BHI100). […] page 11: Table S5. Energy and structural ensembles of synthesized peptides. […] Energy -3887.06 -3620.88 -4968.42 -2163.76 -2646.75 Van der Waals solv. Energy 117.32 91.57 183.20 -88.88 -139.89 Mean RMSD* (Å), mean±SD […] Heavy atoms 1.87 ± 0.33 1.77 ± 0.50 0.98 ± 0.34 0.63 ±0.22 2.88 ±0.62 MMC99 activity including salt stability measurements Antimicrobial activity of L2 and L3 in the presence of NaCl. 1Table S6. Peptide MMC99 (μg/ml) sin NaCl S. aureus E.coli C. albicans (mM) 2[…] 0 50 25 25 85 - - - - - - >200 >200 >200 150 - - - - - - >200 >200 >200 3L 0 12.5 12.5 25 12,5 6.3 6.3 12.5 6.3 12.5 […] 150 >400 >400 (-)2 >400 >400 >400 >200 >200 >200 […] or 150 mM NaCl. L2 and L3 were serially diluted in twofold steps with a starting dilution of 200 μg/ml […] All sample dilutions were run in duplicates (L2) or triplicates (L3). 2 The growth of S. aureus at 24 h in BHI 100 with 85 or 150 mM NaCl was reduced. Minimum microbicidal concentration (MMC), killing 99% of the inoculum. All microorganisms were cultured in brain-heart infusion broth (BHI) overnight on a shaker at 37°C. The cultures were thereafter transferred to fresh BHI broth in volumes constituting 10% of total, and incubated for an additional 2 h to reach exponential growth phase. The bacterial cultures were washed once in BHI diluted 1/100 (BHI100), followed by resuspension in BHI100. The cell suspensions were diluted to a density of […] (bacteria) or 2x10^7 CFU/ml (yeast), as estimated by optical density measurement at 590 nm. […] Serum stability Figure S 133. […] A) peptide L2 B) peptide L3. C) peptide L3-K. D) peptide C3.

E. coli CCUG31246 [5] = type: cell-based; conditions: E. coli CCUG31246; 1:10 BHI; 5 × 10^5 CFU/mL; 37 °C, 16 h, steady agitation; used as 1× MIC
Procedure: MICs were performed under the same growth conditions used for mode of action analysis following the guidelines issued by the Clinical Laboratory Standardization Institute (CLSI) with slight modifications. Serial two-fold dilutions of the peptides were prepared in 1:10 BHI in a sterile 96-well plate and subsequently inoculated with 5 × 10^5 CFU/mL of E. coli CCUG31246. […] The following MICs were obtained: C3: 512 μg/mL, L3: 64 μg/mL, and L3-K: 128 μg/mL. These concentrations were used for all mechanistic experiments. Polymyxin B was used as a positive control in all assays at a final concentration of 10 μg/mL.

Q: For CC(C)[C@H]1NC(=O)[C@H](CCCN)NC(=O)[C@H]([C@@H](C)O)NC(=O)[C@H](CCCN)NC(=O)[C@H](Cc2c[nH]c3ccccc23)NC(=O)[C@@H](C)NC(=O)[C@@H](C(C)C)NC(=O)[C@@H](C)NC(=O)[C@H](Cc2c[nH]c3ccccc23)NC(=O)CCCC(=O)NCCCC[C@@H](C(N)=O)NC(=O)[C@H](Cc2ccc(O)c([N+](=O)[O-])c2)NC1=O [C3] (W[dA][dV][dA]W[Orn]T[Orn][dV][Tyr(3-NO2)]K-NH2; linker N-11 via Glutaryl), which “membrane potential, DiSC(3)5 fluorescence, 10 min” value (E. coli CCUG31246 [1]; 1× MIC of peptide, polymyxin B 10 μg/mL, 10 min) is on record?
A: no effect on the membrane potential

Q: What about the “membrane potential, DiSC(3)5 fluorescence, 60 min” value (E. coli CCUG31246 [1]; 1× MIC, 60 min) of the same molecule?
A: partial depolarization

Q: What about the “cells remaining unstained by propidium iodide after 60 min” value (E. coli CCUG31246 [2]; 1× MIC (64 μg/mL L3, 128 μg/mL L3-K, 512 μg/mL C3), 60 min, 1 μg/mL propidium iodide) of the same molecule?
A: 64%

Q: What about the “propidium iodide uptake” value (E. coli CCUG31246 [2]; 1× MIC of peptide, polymyxin B 10 μg/mL, 10 and 60 min) of the same molecule?
A: only a small subpopulation of cells

Q: And the “membrane depolarization in the FhuA-overexpressing strain” value [3]?
A: stronger depolarization in the FhuA-overexpressing strain

Q: And the “S. aureus MIC” value (S. aureus)?
A: >512 µg/mL

Q: And the “C. albicans MMC99 2 h” value ([4]; 2 h)?
A: >100 µg/mL

Q: And the “C. albicans MMC99 6 h” value ([4]; 6 h)?
A: >100 µg/mL

Q: And the “C. albicans MMC99 24 h” value ([4]; 24 h)?
A: >100 µg/mL

Q: And the “MIC obtained for mechanistic experiments” value (E. coli CCUG31246 [5])?
A: 512 µg/mL
